Here are results for three molecules from patent EP0542609B1, “3-sulfonylamino-2-(1H)-quinolinones and 7-aza derivatives as excitatory amino acids antagonists” (ADIR ET COMPAGNIE, priority 1991, dated 1993).

Each structure is given as a SMILES string. Some results are limits rather than exact numbers.

The target in assay [1] is récepteur AMPA. Nature of the assay: AMPA-induced currents in Xenopus oocytes injected with rat cerebral cortex mRNA (two-electrode voltage clamp). The class given is cell-based. The note with it: for Ki: Xenopus oocyte, AMPA 30 µM, -60 mV, read-out: Courant AMPA Ki; for Oocyte de Xenopus Ki AMPA/Ki NMDA/Gly: ratio of Ki on AMPA current to Ki on NMDA/Gly current. As to the method: (§1) Des oocytes de Xenopus sont injectés de 50 ng d'ARNm poly (A^+) isolés de cortex cérébral de Rat et incubés 2 à 3 Jours à 18°C pour en permettre l'expression protéique. Les courants entrants induits par les AAE sont mesurés dans un milieu de composition : NaCl (82,5 mM), KCl (2,5 mM), CaCl₂ (1 mM), MgCl₂ (1 mM), NaH₂PO₄ (1 mM), HEPES (5 mM), pH 7,4 par la méthode du Voltage-clamp à 2 électrodes (potentiel = - 60 mV). Pour la mesure des courants induits par le NMDA et la glycine, MgCl₂ est absent du milieu et le CaCl₂ est amené à la concentration de 2 mM. Les agonistes AAE induisant les courants sont utilisés aux concentrations suivantes : kainate : 100 µM; AMPA : 30 µM; glycine/NMDA : 3/30 µM. Le produit étudié est appliqué 30 secondes avant et durant l'application de l'agoniste.

Assay [2] concerns récepteur kainate. The assay can be described thus: Kainate-induced currents in Xenopus oocytes injected with rat cerebral cortex mRNA (two-electrode voltage clamp). The class given is cell-based. The note with it: Xenopus oocyte, kainate 100 µM, -60 mV; read-out: Courant Kainate IC50. As to the method: as §1
The test system of assay [3] is récepteurs AMPA/Kainate. The assay can be described thus: Hippocampal EPSP induced by AMPA/Kainate receptor activation (rat hippocampal slices, Schäffer collaterals stimulation). The class given is cell-based. The following applies: for IC50: rat hippocampal slices, CA1, in presence of Mg++ (blocks NMDA receptors), read-out: IC50 (inhibition des EPSP hippocampiques induits par l'activation des récepteurs AMPA/Kainate); for EPSP hippocampique IC50 AMPA-Kainate/IC50 NMDA-Glycine: ratio of IC50 on AMPA-Kainate EPSP to IC50 on NMDA-Glycine EPSP. As to the method:
Des coupes transversales (500 µm) d'hippocampe de Rat sont placées dans un milieu de composition : NaCl (120 mM), KCl (5 mM), CaCl₂ (1 mM), MgSO₄ (1 mM), KH₂PO₄ (1,3 mM), NaHCO₃ (20 mM), HEPES (10 mM), glucose (10 mM), pH 7,35. Les "EPSP" sont enregistrés dans le champ dendritique de la région CA1 lors de stimulations toutes les 30 secondes de la stratum radiatum (50-100 µA, 20 µs). Les EPSP sont évalués au maximum de l'onde négative. Le produit étudié est appliqué durant 10 minutes.

Assay [4] deals with récepteur AMPA. The assay can be described thus: Membrane binding (3H-AMPA), rat cortex homogenate. The note with it: binding to AMPA receptor, rat cortex membranes, 4°C, 30 min. As to the method:
Il est réalisé à partir d'un homogénat de cortex de Rat. Le culot membranaire est classiquement préparé dans un tampon saccharose par centrifugations différentielles puis congelé jusqu'à utilisation. Après décongélation, 200 µl d'homogénat de membranes sont repris dans un tampon Tris HCl (30 mM), CaCl₂ (2,5 mM), pH 7,4 et incubés à 4°C pendant 30 minutes en présence de 25 µl de ³H-AMPA ou de ³H-Kainate et de 25 µl du produit à tester. La liaison non-spécifique est déterminée en présence de 10 µM de quisqualate (binding AMPA) ou de 10 µM d'acide kainique (binding kainate). Les membranes sont ensuite isolées par filtration. Après séchage des filtres, la radioactivité est mesurée par scintillation.

The term Ki denotes the equilibrium dissociation constant of an inhibitor or competing ligand from its target.

`NS(=O)(=O)c1cccc2c3c(cc([N+](=O)[O-])c12)=NC(=O)C(=O)N=3` [NBQX, 6-nitro-7-sulfamoylbenzo[f]quinoxaline-2,3-dione]: in assay [1], the inhibitory constant (Ki) turned out to be 0.06 µM and the “Oocyte de Xenopus Ki AMPA/Ki NMDA/Gly” value is << 0,001. For the same molecule, in assay [2], the IC50 worked out at 0.06 µM. Besides, in assay [3], the IC50 stood at 1 µM and the “EPSP hippocampique IC50 AMPA-Kainate/IC50 NMDA-Glycine” value is << 0,001.

Consider `N#Cc1cc2c(cc1[N+](=O)[O-])=NC(=O)C(=O)N=2` [CNQX, 6-cyano-7-nitroquinoxaline-2,3-dione], for which the Ki in assay [4] amounted to 0.07 µM; in assay [1], 0.4 µM. Besides, the “Oocyte de Xenopus Ki AMPA/Ki NMDA/Gly” value in assay [1] was 0,19. For the same molecule, the figures for the IC50 in assay [2] and in assay [3] were 0.27 µM and 2.9 µM, respectively. Besides, in assay [3], the “EPSP hippocampique IC50 AMPA-Kainate/IC50 NMDA-Glycine” value was 0,03.

Molecule `O=c1[nH]c2cc([N+](=O)[O-])ccc2cc1NS(=O)(=O)C(F)(F)F` [Exemple 2, 7-Nitro-3-(trifluorométhylsulfonylamino)-2-(1H)-quinoléinone] registered an inhibition constant Ki in assay [4] of 0.6 µM. Besides, in assay [1], the inhibitory constant (Ki) turned out to be 0.37 µM and the “Oocyte de Xenopus Ki AMPA/Ki NMDA/Gly” value was 0,60. Besides, the IC50 in assay [2] turned out to be 0.5 µM. Also, in assay [3], the IC50 amounted to 10 µM and the “EPSP hippocampique IC50 AMPA-Kainate/IC50 NMDA-Glycine” value is 0,25.
